Like-named read-outs stand apart in the source and are kept apart here. Non-standard residues stand in square brackets, D forms with d. Residues, ends and D or L forms follow the SMILES beside them.

We go through one compound from patent US11510964B2, “Macrocyclic peptides to decrease c-Myc protein levels and reduce cancer cell growth” (University of Kansas, priority 2017, dated 2022).

The conditions of data set [1]: mice, after systemic administration; cited from earlier work.
The next data set has as its system 22Rv1 cells. The class given is cell-based, human. The settings on record: read-out: IC50, cell growth. Here is the method:
(§1) Human prostate cancer PC-3 cells were cultured and maintained in EMEM (ATCC), non-prostate HEK (human embryonic kidney) cells were cultured in DMEM, human prostate cancer DU145, LNCaP, 22Rv1 cells were cultured in RPMI 1640 (ATCC), and normal BPH-1 prostate cells and prostate cancer C4-2 cell line were cultured in RPMI 1640 (ATCC), all containing 10% fetal bovine serum (Atlanta Biologicals) and 1% penicillin/streptomycin (Invitrogen). Cells were grown at 37° C. in humidified air with 5% CO2 and passaged every fourth to fifth day following trypsinization with trypsin/EDTA (Invitrogen).^16
(§2) PC-3, LNCaP, DU 145, 22Rv1, C4-2, BPH-1, and HEK cells were grown to a density of 2000 cells/well in 96 well plates and treated with [D-Trp]CJ-15,208 or other peptides for 24-72 h in duplicate. Media containing [D-Trp]CJ-15,208 was changed every 24 h. The proliferation of treated cells was determined using the cell proliferation reagent WST-1 (Roche) per the manufacturer's instructions and compared to […] control cells in 1% DMSO in media. After treatment with compound 10 μL of the reagent was added to the well in 100 μL culture media, and the cells incubated at 37° C. for 30 min. The absorbance of the media in each well was measured at […] using a plate reader (BioTek). The percentage cell proliferation was normalized to vehicle treated control cells calculated as: (mean absorbance of sample/mean absorbance of control cells)×100.^38
(§3) Each experiment was performed in triplicate unless otherwise stated in the figure legend. GraphPad Prism 5 was used to determine IC50 values. Data represent the mean value+/−SEM. Compound vs. vehicle treated cells in the cell cycle phase and apoptosis experiments (FIGS. 5-8) were compared using the student's t-test, with a two-tailed, unpaired method, using the Prism software. The effects of compound vs. vehicle treatment on protein levels (FIG. 10) were evaluated by one-way ANOVA with Dunnett's test for multiple comparisons.

The next data set deals with LNCaP cells. The class given is cell-based, human. The conditions noted are these: read-out: IC50, cell growth. The protocol:
as §1, §2, §3

For the next data set, the system named is DU145 cells. It is filed as cell-based, human. The settings on record: read-out: IC50, cell growth. Here is the method:
as §1, §2, §3

In a further data set the test system is PC-3 cells. It is filed as cell-based, human. The settings on record: read-out: IC50, cell growth. The protocol: as §1, §2, §3
Data set [2] relates to c-Myc protein levels in PC-3 cells. The data set can be described thus: Western blot analysis of cellular c-Myc protein levels. It is filed as cell-based, human. The protocol:
Cells were seeded in 6 well plates at a density of 1×10^5 cells/well and grown to 75% confluence. Cells were treated with [D-Trp]CJ-15,208 at the indicated concentrations. Cells were then harvested as described above, and the cell pellets lysed in RIPA buffer consisting of 10 mM Tris HCl, pH 8.0, 150 mM NaCl, 1 mM EDTA, 1% Triton-X-100, 0.1% SDS, 1% sodium deoxycholate, and a protease inhibitor cocktail #P8340 (Sigma). Cell lysates were centrifuged at 13×1000 rpm for 15 min and the supernatants collected. The total protein concentration was measured in cell lysates using the standard Bradford assay. SDS gel electrophoresis was performed using 4-20% polyacrylamide gel (BioRad). Western blot analysis was performed using the following antibodies: i) c-Myc #5605 (rabbit monoclonal, 1:2000 dilution, (Cell Signaling Technologies)); actin #A2228 (mouse monoclonal, 1:5000 dilution (Sigma)), PP2A #610555 (mouse monoclonal 1:5000 dilution, BD Biosciences), p-PP2A #1155-1 (rabbit polyclonal, 1:5000 dilution (Epitomics)), Erk #9107 (mouse monoclonal, 1:2000 dilution (Cell Signaling Technologies) and p-Erk #4376 (rabbit monoclonal, 1:2000 (Cell Signaling Technologies)); Akt #2920 (mouse monoclonal, 1:2000 dilution (Cell Signaling Technologies)), p-Akt #4056 (rabbit monoclonal, 1:2000 (Cell Signaling Technologies)). The secondary antibodies, goat-anti-mouse #116-035-003 and goat-anti-rabbit #111-035-003, were obtained from Jackson ImmunoResearch Laboratory. Signal densities of the protein bands were determined using ImageJ software (NIH) and normalized to the internal loading control (actin).

With `O=C1N[C@H](Cc2c[nH]c3ccccc23)C(=O)N[C@@H](Cc2ccccc2)C(=O)N2CCC[C@@H]2C(=O)N[C@H]1Cc1ccccc1` [[D-Trp]CJ-15,208, cyclo[Phe-D-Pro-Phe-D-Trp]] (cyclo(F[dP]F[dW])), in data set [1], the blood-brain barrier penetration result was “appear to penetrate the blood-brain barrier”. In addition, the IC50 in the data set with 22Rv1 cells (48 h) is 8.8 ± 4 µM; with 22Rv1 cells (72 h), 4 ± 0.8 µM; in the data set on LNCaP cells (48 h), > 50 µM; in the data set with LNCaP cells (72 h), 3 ± 1 µM; in the data set on DU145 cells (48 h) it was 1.2 ± 0.2 µM; in the data set with DU145 cells (72 h) it was 0.7 ± 0.1 µM. Moreover, the IC50 was determined as 16.5 ± 0.7 µM in the data set with PC-3 cells (48 h) and 2 ± 1 µM in the data set on PC-3 cells (72 h). In addition, the “decrease of cellular c-Myc protein levels” value in data set [2] (50 μM (FIG. 1E lanes 4 and 5)) was determined as 5 fold. Moreover, in data set [2] (PC-3 cells, 10 μM, 48 h), the “reduction of c-Myc protein levels” value is on record as “approximately 50%”.
